This is an account of results in US11738096B2, “Method of detecting diseased or damaged tissue with a pH-triggered polypeptide fluorophore composition” (University of Rhode Island Board of Trustees, priority 2016, dated 2023).

Where a SMILES comes first, the peptide text is derived from it. Where no end group is shown, it is not given here. The star is where a group is joined. X1 = CC1(C)C(/C=C/C=C/C=C/C=C2/N(CCCCCC(=O)NCCN3C(=O)CC(*)C3=O)c3ccc4ccccc4c3C2(C)C)=[N+](CCCCS(=O)(=O)[O-])c2ccc3ccccc3c21

For data set [1] the following is noted: residue X in AcWL-X-LL, relative to virtual glycine; cited from earlier work.
A short description of data set [2]: NIR fluorescence imaging of blood vessels and blood flow (ear, leg, blood samples) in mice. The class given is in vivo, mouse. The protocol:
Adult female nude mice (Envigo), 20 g in body mass were used in the study. Fluorescent constructs were given as a single tail vein injection in amounts of 100 μL of 40 μM in PBS. Imaging of mouse ear and leg was performed at 5, 30, 60, 90 and 120 min after construct administration. At 5, 30, 60, 90 and 120 min after construct administration 5 μL of blood was withdrawn from tail (and mixed with 5 μL of anticoagulating solution to preserve blood) while animal was under anesthesia. Mice were euthanized immediately after last imaging point (120 min). Blood collected from all animals was deposited on the glass slide, dried and imaged. Imaging was performed using Novadaq clinical imaging instrument. Autofluorescence was established by imaging mouse with no injection of fluorescent constructs (the level of autofluorescence signal was insignificant compared to the signal after the constructs administration).

Consider `N[C@@H](Cc1c[nH]cn1)C(=O)O` [His, Histidine], for which the “ΔGX^cor, solvation free energy of the side chain” value (“ΔGX^cor, solvation free energy” below) in data set [1] is -1.18 kcal/mol.

Take “IR800-WT: IR800 maleimide conjugated to Cys of WT pHLIP® peptide (SEQ ID NO: 444) (AC(IR800 maleimide)EQNPIYWARYADWLFTTPLLLLDLALLVDADEGT)”: the “imaging of blood vessels in ear and leg” value in data set [2] (IV 100 μL of 40 μM, 5, 30, 60, 90, 120 min) was “better in imaging of blood vessels, however not nearly as good as ICG-WT and ICG-Var3 pHLIP®s”. For the molecule `N[C@@H](Cc1ccc(O)cc1)C(=O)O` [Tyr, Tyrosine], the “ΔGX^cor, solvation free energy” value in data set [1] was “+1.86 kcal/mol”. For `CSCC[C@H](N)C(=O)O` [Met, Methionine], the “ΔGX^cor, solvation free energy” value in data set [1] is reported as “+1.82 kcal/mol”.

With `N[C@@H](CO)C(=O)O` [Ser, Serine], the “ΔGX^cor, solvation free energy” value in data set [1] was “+0.69 kcal/mol”. `N[C@@H](Cc1ccccc1)C(=O)O` [Phe, Phenylalanine]: the “ΔGX^cor, solvation free energy” value in data set [1] is reported as “+2.86 kcal/mol”. As to `CC[C@H](C)[C@H](NC(=O)[C@@H]1CCCN1C(=O)[C@H](CC(N)=O)NC(=O)[C@H](CCC(N)=O)NC(=O)[C@H](CCC(=O)O)NC(=O)[C@H](CSC1CC(=O)N(CCNC(=O)CCCCCN2/C(=C/C=C/C=C/C=C/C3=[N+](CCCCS(=O)(=O)[O-])c4ccc5ccccc5c4C3(C)C)C(C)(C)c3c2ccc2ccccc32)C1=O)NC(=O)[C@H](C)N)C(=O)N[C@@H](Cc1ccc(O)cc1)C(=O)N[C@@H](Cc1c[nH]c2ccccc12)C(=O)N[C@@H](C)C(=O)N[C@@H](CCCNC(=N)N)C(=O)N[C@@H](Cc1ccc(O)cc1)C(=O)N[C@@H](C)C(=O)N[C@@H](CC(N)=O)C(=O)N[C@@H](Cc1c[nH]c2ccccc12)C(=O)N[C@@H](CC(C)C)C(=O)N[C@@H](Cc1ccccc1)C(=O)N[C@H](C(=O)N[C@H](C(=O)N1CCC[C@H]1C(=O)N[C@@H](CC(C)C)C(=O)N[C@@H](CC(C)C)C(=O)N[C@@H](CC(C)C)C(=O)N[C@@H](CC(C)C)C(=O)N[C@@H](CC(N)=O)C(=O)N[C@@H](CC(C)C)C(=O)N[C@@H](C)C(=O)N[C@@H](CC(C)C)C(=O)N[C@@H](CC(C)C)C(=O)N[C@H](C(=O)N[C@@H](CC(=O)O)C(=O)N[C@@H](C)C(=O)N[C@@H](CC(=O)O)C(=O)N[C@@H](CCC(=O)O)C(=O)NCC(=O)N[C@H](C(=O)O)[C@@H](C)O)C(C)C)[C@@H](C)O)[C@@H](C)O` (some centres unmarked) [ICG-NpHLIP®] (H-AC(X1)EQNPIYWARYANWLFTTPLLLLNLALLVDADEGT-OH), the “fluorescent signal in blood samples” value in data set [2] (blood collected 5-120 min after IV injection) was “significantly reduced signal”. In the case of `C[C@@H](O)[C@H](N)C(=O)O` [Thr, Threonine], the “ΔGX^cor, solvation free energy” value in data set [1] is “+0.90 kcal/mol”.

As for `C[C@H](N)C(=O)O` [Ala, Alanine], the “ΔGX^cor, solvation free energy” value in data set [1] was “+0.65 kcal/mol”. For the molecule `NCCCC[C@H](N)C(=O)O` [Lys, Lysine], the “ΔGX^cor, solvation free energy” value in data set [1] was -1.65 kcal/mol. On to `N[C@@H](Cc1c[nH]c2ccccc12)C(=O)O` [Trp, Tryptophan], for which the “ΔGX^cor, solvation free energy” value in data set [1] is listed as “+3.24 kcal/mol”. For the molecule `O=C(O)[C@@H]1CCCN1` [Pro, Proline], the “ΔGX^cor, solvation free energy” value in data set [1] is reported as “+1.01 kcal/mol”. In the case of `N[C@@H](CCC(=O)O)C(=O)O` [Glu, Glutamic acid], the “ΔGX^cor, solvation free energy” value in data set [1] is -2.48 kcal/mol. Consider `NC(=O)C[C@H](N)C(=O)O` [Asn, Asparagine], for which, in data set [1], the “ΔGX^cor, solvation free energy” value is “+0.30 kcal/mol”.

For `CC(C)[C@H](N)C(=O)O` [Val, Valine], the “ΔGX^cor, solvation free energy” value in data set [1] is on record as “+1.61 kcal/mol”.

Regarding `N=C(N)NCCC[C@H](N)C(=O)O` [Arg, Arginine], in data set [1], the “ΔGX^cor, solvation free energy” value is -0.66 kcal/mol.

For the molecule `N[C@@H](CC(=O)O)C(=O)O` [Asp, Aspartic acid], the “ΔGX^cor, solvation free energy” value in data set [1] was -2.49 kcal/mol.
